Experimental data reported in US20020132853A1, “Capsaicin receptor ligands” (priority 2000, published 2002).
Read-outs that look alike come from different tables or passages of the source.

Biological target: T1, human capsaicin receptor (Homo sapiens, UniProt Q8NER1)
T1 construct: expression consrtuct encoding the full length human capsaicin receptor; expressed in transfected cells
Assay: Antagonist assay for Capsaicin receptor mediated calcium mobilization
Type: cell-based
Details: read-out: EC50 (the source's name)
Summary of the method: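 Cells expressing human capsaicin receptor, loaded with Fluo-3 AM, were preincubated 0.5–6 h at room temperature in the dark with test compound at 1–5 μM final in KRH buffer (pH 7.4, 2 mM CaCl2, probenecid). Capsaicin at its EC50 was then added via FLIPR; IC50 is the antagonist concentration halving the calcium signal.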

T1 sequence (Q8NER1 whole entry): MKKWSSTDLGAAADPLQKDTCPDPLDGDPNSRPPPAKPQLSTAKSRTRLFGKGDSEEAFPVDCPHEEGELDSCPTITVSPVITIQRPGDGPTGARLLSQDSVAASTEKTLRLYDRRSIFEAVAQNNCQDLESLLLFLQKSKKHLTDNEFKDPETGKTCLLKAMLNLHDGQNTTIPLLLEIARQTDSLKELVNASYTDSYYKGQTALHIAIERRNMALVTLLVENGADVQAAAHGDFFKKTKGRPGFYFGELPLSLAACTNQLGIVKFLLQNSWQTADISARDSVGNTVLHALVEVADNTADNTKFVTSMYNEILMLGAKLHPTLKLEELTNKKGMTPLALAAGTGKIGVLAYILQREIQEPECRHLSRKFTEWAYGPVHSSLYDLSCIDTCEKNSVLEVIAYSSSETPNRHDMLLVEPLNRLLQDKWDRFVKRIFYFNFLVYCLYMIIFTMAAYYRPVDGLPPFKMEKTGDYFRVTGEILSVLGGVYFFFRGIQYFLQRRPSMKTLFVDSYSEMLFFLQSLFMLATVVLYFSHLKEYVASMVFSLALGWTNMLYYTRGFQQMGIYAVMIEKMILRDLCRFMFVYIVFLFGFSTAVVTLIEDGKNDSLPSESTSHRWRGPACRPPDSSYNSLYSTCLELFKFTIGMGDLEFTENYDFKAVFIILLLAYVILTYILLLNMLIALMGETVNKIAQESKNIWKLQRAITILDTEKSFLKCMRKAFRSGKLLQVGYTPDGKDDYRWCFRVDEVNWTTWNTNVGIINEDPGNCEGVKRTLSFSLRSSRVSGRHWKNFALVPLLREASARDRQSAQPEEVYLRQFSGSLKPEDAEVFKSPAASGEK

Cc1cc(NC(=O)N2CCN(c3ncccc3F)C[C@H]2C)ccc1C(F)(F)F [Compound 122, (2R)-4-(3-fluoropyridin-2-yl)-2-methyl-N-[3-methyl-4-(trifluoromethyl)phenyl]piperazine-1-carboxamide]
IC50 (Table V): < 1000 nM

C[C@@H]1CN(c2ncccc2N(S(C)(=O)=O)S(C)(=O)=O)CCN1C(=O)Nc1ccc(C(C)(C)C)cc1 [Compound 123, (2R)-4-{3-[bis(methylsulfonyl)amino]pyridin-2-yl}-N-(4-tert-butylphenyl)-2-methylpiperazine-1-carboxamide]
IC50 (Table V): < 1000 nM

Cc1cc(NC(=O)N2CCN(c3ncccc3C(F)(F)F)C[C@H]2C)ccc1C(F)(F)F [Compound 124, (2R)-2-methyl-N-[3-methyl-4-(trifluoromethyl)phenyl]-4-[3-(trifluoromethyl)pyridin-2-yl]piperazine-1-carboxamide]
IC50 (Table V): < 1000 nM

C=C(c1ccc(NC(=O)N2CCN(c3ncccc3Cl)C[C@H]2C)cc1)C(F)(F)F [Compound 125, (2R)-4-(3-chloropyridin-2-yl)-2-methyl-N-{4-[1-(trifluoromethyl)vinyl]phenyl]piperazine-1-carboxamide]
IC50 (Table V): < 1000 nM

C=C(c1ccc(NC(=O)N2CCN(c3ncccc3C(F)(F)F)C[C@H]2C)cc1)C(F)(F)F [Compound 126, (2R)-2-methyl-4-[3-(trifluoromethyl)pyridin-2-yl]-N-{4-[1-(trifluoromethyl)vinyl]phenyl}piperazine-1-carboxamide]
IC50 (Table V): < 1000 nM

C=C(c1ccc(NC(=O)N2CCN(c3ncccc3F)C[C@H]2C)cc1)C(F)(F)F [Compound 127, (2R)-4-(3-fluoropyridin-2-yl)-2-methyl-N-{4-[1-(trifluoromethyl)vinyl]phenyl}piperazine-1-carboxamide]
IC50 (Table V): < 1000 nM

CCC(C)c1ccc(NC(=O)N2CCN(c3ncccc3F)C[C@H]2C)cc1 (stereo partly drawn) [Compound 128, (2R)-N-(4-sec-butylphenyl)-4-(3-fluoropyridin-2-yl)-2-methylpiperazine-1-carboxamide]
IC50 (Table V): < 1000 nM

CC(c1ccc(NC(=O)N2CCN(c3ncccc3C(F)(F)F)C[C@H]2C)cc1)C(F)(F)F (stereo partly drawn) [Compound 129, (2R)-2-methyl-N-[4-(2,2,2-trifluoro-1-methylethyl)phenyl]-4-[3-(trifluoromethyl)pyridin-2-yl]piperazine-1-carboxamide]
IC50 (Table V): < 1000 nM

CC(c1ccc(NC(=O)N2CCN(c3ncccc3F)C[C@H]2C)cc1)C(F)(F)F (stereo partly drawn) [Compound 130, (2R)-4-(3-fluoropyridin-2-yl)-2-methyl-N-[4-(2,2,2-trifluoro-1-methylethyl)phenyl]piperazine-1-carboxamide]
IC50 (Table V): < 1000 nM

C[C@@H]1CN(c2ncc([N+](=O)[O-])cc2Cl)CCN1C(=O)Nc1ccc(C(F)(F)F)cc1 [Compound 131, (2R)-4-(3-chloro-5-nitrpyridin-2-yl)-2-methyl-N-[4-(trifluoromethyl)phenyl]piperazine-1-carboxamide]
IC50 (Table V): < 1000 nM

C[C@@H]1CN(c2ncc(N)cc2Cl)CCN1C(=O)Nc1ccc(C(F)(F)F)cc1 [Compound 132, (2R)-4-(5-amino-3-chloropyridin-2-yl)-2-methyl-N-[4-(trifluoromethyl)phenyl]piperazine-1-carboxamide]
IC50 (Table V): < 1000 nM

C[C@@H]1CN(c2ncccc2S(N)(=O)=O)CCN1C(=O)Nc1ccc(C(C)(C)C)cc1 [Compound 139, (2R)-4-[3-(aminosulfonyl)pyridin-2-yl]-N-(4-tert-butylphenyl)-2-methylpiperazine-1-carboxamide]
IC50 (Table V): < 1000 nM

C[C@@H]1CN(c2ncccc2Cl)CCN1C(=O)Nc1ccc(C(=O)c2ccccc2)cc1 [Compound 140, (2R)-N-(4-benzoylphenyl)-4-(3-chloropyridin-2-yl)-2-methylpiperazine-1-carboxamide]
IC50 (Table V): < 1000 nM

C[C@@H]1CN(c2ncccc2Cl)CCN1C(=O)Nc1ccc(I)cc1 [Compound 141, (2R)-4-(3-chloropyridin-2-yl)-N-(4-iodophenyl)-2-methylipierazine-1-carboxamide]
IC50 (Table V): < 1000 nM

C[C@@H]1CN(c2ncccc2Cl)CCN1C(=O)Nc1ccc2c(c1)Cc1ccccc1-2 [Compound 142, (2R)-4-(3-chloropyridin-2-yl)-N-(9H-flouren-2-yl)-2-methylpiperazine-1-carboxamide]
IC50 (Table V): < 1000 nM

C[C@@H]1CN(c2ncccc2C(F)(F)F)CCN1C(=O)Nc1ccc2c(c1)Cc1ccccc1-2 [Compound 143, (2R)-N-(9H-fluoren-2-yl)-2-methyl-4-[3-(trifluoromethyl)pyridin-2-yl]piperazine-1-carboxamide]
IC50 (Table V): < 1000 nM

C[C@@H]1CN(c2ncccc2Cl)CCN1C(=O)Nc1ccc(C(C(F)(F)F)(C(F)(F)F)C(F)(F)F)cc1 [Compound 148, *2R)-4-(3-chloropyridin-2-yl)-2-methyl_n_{4-[2,2,2-trifluoro-1,1-bis(trifluoromethyl)-ethyl]phenyl}piperazine-1-carboxamide]
IC50 (Table V): < 1000 nM

C[C@@H]1CN(c2ncccc2C(F)(F)F)CCN1C(=O)Nc1ccc(C(C(F)(F)F)(C(F)(F)F)C(F)(F)F)cc1 [Compound 149, (2R)-2-methyl-N-{4-[2,2,2-trifluoro-1,1-bis(trifluoromethyl)-ethyl]phenyl}-4-[3-(trifluoromethyl)pyridin-2-yl]piperazine-1-carboxamide]
IC50 (Table V): < 1000 nM

C[C@@H]1CN(c2ncccc2Cl)CCN1C(=O)Nc1cccc(I)c1 [Compound 150, (2R)-4-(3-chloropyridin-2-yl)-N-(3-iodophenyl)-2-methylpiperazine-1-carboxamide]
IC50 (Table V): < 1000 nM

C[C@@H]1CN(c2ncccc2F)CCN1C(=O)Nc1cccc(I)c1 [Compound 151, (2R)-4-(3-fluoropyridin-2-yl)-N-(3-iodophenyl)-2-methylpiperazine-1-carboxamide]
IC50 (Table V): < 1000 nM

CCCCc1ccc(NC(=O)N2CCN(c3ncccc3Cl)C[C@H]2C)cc1 [Compound 152, (2R)-N-(4-butylphenyl)-4-(3-chloropyridin-2-yl)-2-methylpiperazine-1-carboxamide]
IC50 (Table V): < 1000 nM

O=C(Nc1ccc(C(F)(F)F)cc1)N1CCN(c2ncccc2C(F)(F)F)CC1CF (centres unmarked) [Compound 153, 2-(fluoromethyl)-N-[4-(trifluoromethyl)phenyl]-4-[3-(trifluoromethyl)pyridin-2-yl]piperazine-1-carboxamide]
IC50 (Table V): < 1000 nM

Cc1ccc(NC(=O)N2CCN(c3ncccc3C(F)(F)F)C[C@H]2C)cc1C(F)(F)F [Compound 155, (2R)-2-methyl-N-[4-methyl-3-(trifluoromethyl)phenyl]-4-[3-(trifluoromethyl)pyridin-2-yl]piperazine-1-carboxamide]
IC50 (Table V): < 1000 nM

C[C@@H]1CN(c2ncccc2Cl)CCN1C(=O)Nc1ccc(Br)c(C(F)(F)F)c1 [Compound 156, (2R)-N-[4-bromo-3-(trifluoromethyl)phenyl]-4-(3-chloropyridin-2-yl)-2-methylpiperazine-1-carboxamide]
IC50 (Table V): < 1000 nM

C[C@@H]1CN(c2ncccc2C(F)(F)F)CCN1C(=O)Nc1ccc(Br)c(C(F)(F)F)c1 [Compound 157, (2R)-N-[4-bromo-3-(trifluoromethyl)phenyl]-2-methyl-4-[3-(trifluoromethyl)pyridin-2-yl]piperazine-1-carboxamide]
IC50 (Table V): < 1000 nM

C[C@@H]1CN(c2ncccc2Cl)CCN1C(=O)Nc1ccc(Cl)c(C(F)(F)F)c1 [Compound 158, (2R)-4-(3-chloropyridin-2-yl)-N-[4-chloro-3-(trifluoromethyl)phenyl]-2-methylpiperazine-1-carboxamide]
IC50 (Table V): < 1000 nM

C[C@@H]1CN(c2ncccc2Cl)CCN1C(=O)Nc1ccc(F)c(C(F)(F)F)c1 [Compound 159, (2R)-4-(3-chlorpyridin-2-yl)-N-[4-fluoro-3-(trifluoromethyl)phenyl]-2-methylpiperazine-1-carboxamide]
IC50 (Table V): < 1000 nM

C[C@@H]1CN(c2ncccc2C(F)(F)F)CCN1C(=O)Nc1ccc(Cl)c(C(F)(F)F)c1 [Compound 160, (2R)-N-[4-chloro-3-(trifluoromethyl)phenyl]-2-methyl-4-[3-(trifluoromethyl)pyridin-2-yl]piperazine-1-carboxamide]
IC50 (Table V): < 1000 nM

C[C@@H]1CN(c2ncccc2C(F)(F)F)CCN1C(=O)Nc1ccc(F)c(C(F)(F)F)c1 [Compound 161, (2R)-N-[4-fluoro-3-(trifluoromethyl)phenyl]-2-methyl-4-[3-(trifluoromethyl)pyridin-2-yl]piperazine-1-carboxamide]
IC50 (Table V): < 1000 nM

C[C@@H]1CN(c2ncccc2Cl)CCN1C(=O)Nc1ccc(C(F)(C(F)(F)F)C(F)(F)F)cc1 [Compound 162, (2R)-4-(3-chloropyridin-2-yl)-2-methyl-N-{4-[1,2,2,2-tetrafluoro-1-(trifluoromethyl)ethyl]phenyl}piperazine-1-carboxamide]
IC50 (Table V): < 1000 nM

C[C@@H]1CN(c2ncccc2C(F)(F)F)CCN1C(=O)Nc1ccc(C(F)(C(F)(F)F)C(F)(F)F)cc1 [Compound 163, (2R)-2-methyl-N-{4-[1,2,2,2-tetrafluoro-1-(trifluoromethyl)ethyl]phenyl}-4-[3-(trifluoromethyl)pyridin-2-yl]piperazine-1-carboxamide]
IC50 (Table V): < 1000 nM

C[C@@H]1CN(c2nccnc2Cl)CCN1C(=O)Nc1ccc(C(F)(C(F)(F)F)C(F)(F)F)cc1 [Compound 164, (2R)-4-(3-chloropyrazin-2-yl)-2-methyl-N-{4-[1,2,2,2-tetrafluoro-1-(trifluoromethyl)ethyl]phenyl}piperazine-1-carboxamide]
IC50 (Table VI): < 1000 nM

C[C@@H]1CN(c2nccnc2Cl)CCN1C(=O)Nc1ccc(C2CCCC2)cc1 [Compound 165, (2R)-4-(3-chloropyrazin-2-yl)-2-methyl-N-{4-cyclopentyl-phenyl}piperazine-1-carboxamide]
IC50 (Table VI): < 1000 nM

C[C@@H]1CN(c2nccnc2Cl)CCN1C(=O)Nc1ccc(C2CCCCC2)cc1 [Compound 166, (2R)-4-(3-chloropyrazin-2-yl)-2-methyl-N-{4-cyclohexyl-phenyl}piperazine-1-carboxamide]
IC50 (Table VI): < 1000 nM

CCCCc1ccc(NC(=S)N2CCN(c3ncccc3Cl)C[C@H]2C)cc1 [Compound 167]
IC50 (Table VI): < 1000 nM
